Experimental data published in patent EP0183174A2, “Substituted phenoxy urea, processes for its preparation and herbicide containing it as active ingredient” (KUMIAI CHEMICAL INDUSTRY CO., LTD., priority 1984, dated 1986).

Assays:
maize = assay: Test Example 3: herbicidal test by upland soil treatment (phytotoxicity); type: in vivo; parameters: key: 5: Withered; 4.5: Herbicidal effect (or phytotoxicity) in a range of 90 to 99%; 4: Herbicidal effect (or phytotoxicity) in a range of 80 to 89%; 3.5: Herbicidal effect (or phytotoxicity) in a range of 70 to 79%; 3: Herbicidal effect (or phytotoxicity) in a range of 60 to 69%; 2.5: Herbicidal effect (or phytotoxicity) in a range of 50 to 59%; 2: Herbicidal effect (or phytotoxicity) in a range of 40 to 49%; 1.5: Herbicidal effect (or phytotoxicity) in a range of 30 to 39%; 1: Herbicidal effect (or phytotoxicity) in a range of 20 to 29%; 0.5: Herbicidal effect (or phytotoxicity) in a range of 1 to 19%; 0: No herbicidal effect (or no phytotoxicity); details: evaluated twenty days after application
Source text: (§1) Into each plastic pot of 600 cm^2, upland soil was filled, then seeds of barnyardgrass, crabgrass, green foxtail, redroot pigweed, rice flatsedge, rice, wheat, maize, soybean, cotton and sugar beet were sown, and they were covered with soil. A predetermined amount of the wettable powder prepared from the test compound in accordance with Formulation Example 3 and diluted with water, was uniformly applied to the surface of the soil at an application rate of 1000 liter/hectare by means of a small size spray. They were grown in a greenhouse, and twenty days after the application, the herbicidal effects and phytotoxicity were evaluated in accordance with the standards as identified in Table 5.

rice = assay: as above; type: in vivo; parameters: key: 5: Withered; 4.5: Herbicidal effect (or phytotoxicity) in a range of 90 to 99%; 4: Herbicidal effect (or phytotoxicity) in a range of 80 to 89%; 3.5: Herbicidal effect (or phytotoxicity) in a range of 70 to 79%; 3: Herbicidal effect (or phytotoxicity) in a range of 60 to 69%; 2.5: Herbicidal effect (or phytotoxicity) in a range of 50 to 59%; 2: Herbicidal effect (or phytotoxicity) in a range of 40 to 49%; 1.5: Herbicidal effect (or phytotoxicity) in a range of 30 to 39%; 1: Herbicidal effect (or phytotoxicity) in a range of 20 to 29%; 0.5: Herbicidal effect (or phytotoxicity) in a range of 1 to 19%; 0: No herbicidal effect (or no phytotoxicity); details: evaluated twenty days after application
Source text: as §1

CN(C)C(=O)NOc1cc(Cl)ccc1Cl [Compound No. 1, 3-(2,5-Dichlorophenoxy)-1,1-dimethyl urea]
0: Phytotoxicity Maize (maize; Dose 1 kg/HA) | Phytotoxicity Maize (maize; Dose 4 kg/HA) | Phytotoxicity Rice (rice; Dose 1 kg/HA) | Phytotoxicity Rice (rice; Dose 4 kg/HA)
